For orientation: melting point means the temperature, or range, at which the solid turns liquid.

Bounds are passed on as bounds.

In the case of `CC(C)(C)OC(=O)N1CCC(C#N)(CCl)CC1`, the melting point is 114 to 116 °C.

In turn, `CCC1(CO)COC2(CC(c3ccccc3)SC(c3ccccc3)C2)OC1` (centres undefined) returned a melting point of 128 °C.

The molecule `Nc1ccccc1C(=O)OC1CCN(Cc2ccccc2)CC1` had a melting point of 87 to 88 °C.

In the case of `Cc1cccc(C)c1-c1cccc(C(N)=O)c1`, the melting point lay in the range of 123 to 125 °C.

With `COC(=O)c1ccc([N+](=O)[O-])cc1NC(=O)c1ccc(C(C)(C)C)cc1`, the melting point was 146 to 148 °C.

The molecule `CC12Nc3ccccc3N1C(=O)c1ccccc12` (centres undefined) registered a melting point of 182 °C.

`Cc1cc(-c2cccc(C(=O)CC(=O)OC(C)(C)C)c2)on1` gave a melting point of 50 to 56 °C.

As for `CC1(C)COC(=O)N1c1nc(-c2cccc([N+](=O)[O-])c2)cs1`, the melting point was greater than 210 °C.

Regarding `COc1cc(C=C[N+](=O)[O-])c2c(c1OC)CCC2`, the melting point lay within 128 to 130 °C.

Turning to `CN(CCCCCC(=O)O)c1ccc(Br)cc1C=O`, the melting point lay in the range of 95 to 96 °C.

In the case of `CC(C)Cn1c(CON2C(=O)c3ccccc3C2=O)nc2c(N)nc3ccccc3c21`, the melting point is 221 to 222 °C.

With `N#Cc1ccc2c(c1)C(O)CCCO2` (centres undefined), the melting point was in the range of 85 to 86.5 °C.

As for `Oc1ccc(CC(=S)Nc2ncc(-c3ccc(O)cc3)nc2Cc2ccccc2)cc1`, the melting point lay within 101 to 103 °C.

Turning to `CCOC(=O)Cc1c(CCc2ccc(O)cc2)oc2ccc(C#N)cc12`, the melting point lay in the range of 134 to 136 °C.

The molecule `Cc1c(-c2ccncc2)[nH]c(-c2ccncc2)c1C(=O)OCc1ccccc1` showed a melting point of 204 to 205 °C.

In turn, `CCOC(=O)c1cc2cc(NC(=O)OC(C)(C)C)ccc2[nH]1` had a melting point of 190 to 192 °C.

`Cc1cc(C)c(Nc2nc(C)ccc2S(=O)(=O)c2ccc(-c3ccccc3)cc2)c(C)c1`: the melting point lay within 140 to 141 °C.

`CC(C)(C)OC(=O)N1CCC2(CC1)SCc1ccccc12` yielded a melting point of 131 to 132 °C.

Take `CC(=O)NCC1CC(c2ccc(N3CCOCC3)c(F)c2)=NO1` (single isomer, unassigned; (-)): the melting point lay in the range of 179 to 180 °C.

`CCN(CC)CCSC1=C(C#N)C(c2ccc(OC)cc2)(c2cccnc2)C(=O)N1` (centres undefined) yielded a melting point of 133 °C.

In turn, `CCCCc1ccc(N2C(=O)CN(Cc3ccccc3)C2=S)cc1` gave a melting point of 149 to 151 °C.

In turn, `c1ccc(C2NCCc3ccccc32)nc1` (racemic) gave a melting point of 124 °C.

Molecule `O=C1c2ccccc2N(N2CCOCC2)C2=NCCN12` returned a melting point of 250 to 251 °C.

The molecule `Cn1c(=O)c2c(nc(C=Cc3cccc([N+](=O)[O-])c3)n2C)n(C)c1=O` came in with a melting point of 306 to 308 °C.

For the molecule `NS(=O)(=O)Oc1ccccc1Cl`, the melting point fell in the range of 62.5 to 63.5 °C.

`CC(=O)Nc1ccc2nc3n(c2c1)CCC3` gave a melting point of 250 to 255 °C.

Consider `CN1CCN(c2nc(C(F)(F)F)cs2)CC1`, for which the melting point was 62 °C.

Molecule `Cn1c(=O)oc2cc(NCCCc3ccccc3)ccc21` returned a melting point of 97 to 98 °C.

On to `O=C(Nc1ccc(F)cc1)c1ccc(OC(F)(F)F)c(Nc2cccc(C(F)(F)F)c2)c1`, for which the melting point lay within 143 to 144 °C.

Molecule `CCC(c1ccc(O)cc1)c1ccc(O)cc1` had a melting point of 131 to 133 °C.

Molecule `CCCCc1ncc(CC(Cc2ccccc2)C(=O)O)n1Cc1ccccc1` (centres undefined) registered a melting point of 148 to 150 °C.

Molecule `CCCCC(CC)COc1ccc(-n2c(C)cc(=O)cc2C)cc1` (centres undefined) displayed a melting point of 143 °C.

With `OCCc1coc2c(O)cccc12`, the melting point fell in the range of 116 to 117 °C.

On to `O=C1Cc2cc([N+](=O)[O-])c(NC(=O)c3ccncc3)cc2N1`, for which the melting point was greater than 300 °C.

`CCOC(=O)c1cn(-c2ccc(F)c(NC(C)(C)C)n2)c2c(Cl)c(F)c(F)cc2c1=O`: the melting point was in the range of 207 to 210 °C.

The molecule `CSc1onc(-c2ccccc2)c1-c1ccccc1` registered a melting point of 83 to 86 °C.

On to `O=C(Nc1ccc2c(c1)nc1n2CCCC1)c1cc2cccnc2n1Cc1ccccc1`, for which the melting point is 233 to 235 °C.

`COc1cnc(OC(c2ccccc2)(c2ccccc2)c2ccccc2)cc1OC1CCCC1` returned a melting point of 132 to 133 °C.

Molecule `CC(C)(CCCCCC(=O)CCCCCC(C)(C)C(=O)O)C(=O)O` showed a melting point of 74.5 to 76 °C.

`CNC(=S)Nc1ccccc1N1CCOCC1` came in with a melting point of 115 to 116 °C.

Consider `Cc1cc(C2=NOC(c3cc(Cl)cc(Cl)c3)(C(F)(F)F)C2)ccc1C(=O)NC1CSC1` (centres undefined), for which the melting point lay in the range of 158 to 159 °C.

With `CC1=C(C(=O)O)C(c2cccc([N+](=O)[O-])c2)C(C(=O)OCCC#N)=C(C)N1` (centres undefined), the melting point was in the range of 131 to 132 °C.

`Nc1ccc(Sc2ccccc2)cn1` gave a melting point of 127 to 129 °C.

Molecule `COc1ccccc1Nc1ccc2c(c1)OCc1cc([N+](=O)[O-])ccc1C2=O` gave a melting point of 200 °C.

The molecule `ClCc1cn2ccccc2n1` gave a melting point of 93 to 94 °C.

`O=C(Nc1c(C(O)(C(F)(F)F)C(F)(F)F)ccc2ccccc12)c1cccc(F)c1` gave a melting point of 190 to 192 °C.

`CCC(=O)N(N(CCCl)S(C)(=O)=O)S(C)(=O)=O` returned a melting point of 97 to 98 °C.

`CC1(C(=O)Nc2ccc(OCC3CC3)c(C(F)(F)F)c2)CC1` returned a melting point of 84 to 85 °C.

`COC(=O)CN(C)c1nc(-c2ccc(-c3ccccc3)cc2)c(C(=O)OC)s1`: the melting point was 141 °C.

The molecule `O=C1C(Cc2ccncc2)c2ccccc2N1N1CCOCC1` (centres undefined) had a melting point of 108 to 110 °C.

The molecule `Cc1ccc(S(=O)(=O)Nc2cc3c(c(C(=O)O)c2)NC(c2ccccc2)CC3)cc1` (centres undefined) registered a melting point of 219 to 220 °C.

Molecule `O=S(=O)(c1ccccc1)c1ccc(Br)cc1` had a melting point of 95 to 99 °C.

For the molecule `CC(=O)OC1Cc2ccc(F)cc2/C1=C/C(N)=O` (centres undefined), the melting point lay within 202 to 203 °C.

Molecule `Nc1cc(-n2cc(C(=O)O)c(=O)c3cc(F)c(F)cc32)c(F)cc1F` showed a melting point greater than 270 °C.

In turn, `CCCCCNC(=O)NCCCCCOc1cccc2sc(NC(C)=O)nc12` registered a melting point of 61.6 to 61.8 °C.

Regarding `CS(=O)(=O)c1ccc(C(CC2CCCC2)C(=O)Nc2nccs2)cc1C(F)(F)F` (centres undefined), the melting point is 117 to 121 °C.

As to `Cc1ccn2c(C(=O)O)c(C)nc2c1`, the melting point fell in the range of 180 to 183 °C.

In turn, `CCCC(=O)Nc1nn(COCC[Si](C)(C)C)c2cc(Cl)c(Br)cc12` returned a melting point of 130 °C.

Molecule `FC(F)c1ccccc1C=C1c2ccccc2CCc2ccccc21` registered a melting point of 13.3 °C.

`OCC#CC1=Cc2ccccc2Sc2ccc(Cl)cc21` showed a melting point of 111 to 113 °C.

The molecule `Cc1nnc(N2C(=O)C(O)=C(C(=O)c3ccc(C(C)C)cc3)C2c2ccc(C(F)(F)F)cc2)s1` (centres undefined) registered a melting point of 257 °C.

Regarding `CS(=O)(=O)Nc1cccc(-c2ccc(S(=O)(=O)n3ccc(C=CC(=O)NO)c3)cc2)c1`, the melting point is 137 to 148 °C.

As to `Clc1cccc(CSc2nnc(-c3ccc4occc4c3)o2)c1`, the melting point lay within 125 to 126 °C.

Regarding `CCOC(=O)c1c(S(N)=O)c2ccccc2n1CC` (centres undefined), the melting point lay within 78 to 80 °C.

`Cc1nc2c3cccc(Cl)c3ccn2c1CN(C)C` returned a melting point of 157 to 160 °C.

Consider `CCOC(=O)COc1ccc(NC(=O)c2ccc(C(C)(C)C)cc2)cc1`, for which the melting point was 119 to 122 °C.

Turning to `COC(=O)c1ccc(CCC(C)NCC(O)c2cc3ccccc3o2)cc1` (centres undefined), the melting point was 104 to 108 °C.

The molecule `COc1cc(OC)c(-c2cc3ccccc3n2C)cc1C=CC(=O)c1ccc(S(=O)(=O)NO[Si](C)(C)C(C)(C)C)cc1` showed a melting point of 129 to 131 °C.

Take `CSC(=O)c1c(C(F)F)nc(C(F)(F)F)c(C(=O)SC)c1N`: the melting point was 160 to 161 °C.

Molecule `O=C1C2=C(CCCC2)C(=S)N1c1ccc(Cl)cc1F` had a melting point of 101 to 102 °C.

For `COC(=O)C1C(C(OC(=S)Oc2ccc(C)cc2)C(C)C)C1(C)C` (centres undefined), the melting point was in the range of 92 to 93 °C.

As to `CCCCc1oc2ccccc2c1C(=O)NCc1ccc2c(-c3ccc(C(C)(C)C)cc3)c(O)ccc2c1`, the melting point lay within 195 to 197 °C.

In turn, `O=C1CCC(N2C(=O)c3cccc(OCc4cc5ccccc5o4)c3C2=O)C(=O)N1` (centres undefined) came in with a melting point of 234 to 236 °C.

Molecule `CCNC(C)c1cc(S(N)(=O)=O)sc1S(C)(=O)=O` (centres undefined) yielded a melting point of 164 to 166 °C.

`CN(CC(=O)c1cccn1Cc1ccc(Cl)cc1[N+](=O)[O-])Cc1ccccc1` gave a melting point of 90 to 93 °C.

In the case of `CC(CCn1ccnc1)N=C1c2cccc3cccc(c23)N1C(c1ccccc1)c1ccccc1` (centres undefined), the melting point fell in the range of 55 to 64 °C.

Molecule `CCOC(=O)[C@H](Cc1ccc(Nc2nccc3ccncc23)cc1)NC1=CC(=O)C12CCOCC2` displayed a melting point of 112 °C.

Regarding `Cc1oc(-c2ccccc2)nc1CC#Cc1ccc(CC(C(=O)O)c2ccc(-c3ccccc3)cc2)cc1` (centres undefined), the melting point lay in the range of 163 to 165 °C.

On to `CCOC(=O)C(=O)Nc1ccc(C#N)c2ccccc12`, for which the melting point stood at 164 °C.

As to `CCCCCCCCCCCCCCCCS(=O)(=O)OC1CNC1`, the melting point was 91 to 97 °C.

Molecule `COc1cc(C=C2C(=O)CCc3ccc([N+](=O)[O-])cc32)c([N+](=O)[O-])cc1OC` yielded a melting point of 125 °C.

Take `CC(C)(C)c1cccc(S(=O)(=O)n2c(CBr)cc3cc(C(F)(F)F)ccc32)c1`: the melting point is 80 °C.

For `Cc1nc(-c2ccc3c(c2)OCO3)c2cc3c(cc2n1)OCO3`, the melting point was 207 to 210 °C.

Molecule `CC1(C(O)(C=Cc2ccc(Cl)cc2)Cn2cncn2)CC1(F)F` (centres undefined) had a melting point of 131 °C.

`CC(C)N1CCN(C(=O)c2cc(N)cc(C(F)(F)F)c2)CC1`: the melting point is 89 to 90 °C.

Regarding `O=C1Nc2cccnc2N(CCCCN2CCCCC2)c2ccccc21`, the melting point lay in the range of 131 to 132 °C.

`CCOC(=O)Cc1c(C)nn(-c2ccccc2)c1C` yielded a melting point of 86 to 87 °C.

`CCCc1ccc(-c2cnc(C#N)c(C#N)n2)cc1` yielded a melting point of 87 to 87.9 °C.

`Cc1ccc(-n2c(=O)n(OCc3ccccc3)c(=O)c3cc(F)c(Cl)nc32)cc1` had a melting point of 218 to 219 °C.
